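Grown in 96-well plates, cells were treated for 48 hours with each compound at five concentrations. Insufficient inhibition: endpoint recorded as highest concentration tested. GI50 = concentration required for 50% inhibition of growth. TGI: concentration producing complete growth inhibition.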
What was measured:
Experiment in all cases: NCI-60 cell line screen, 48 h
786-0 renal = test system: 786-0 renal
A498 renal = test system: A498 renal
ACHN renal = test system: ACHN renal
BT-549 breast = test system: BT-549 breast
CCRF-CEM leukemia = test system: CCRF-CEM leukemia
COLO 205 colon = test system: COLO 205 colon
DU-145 prostate = test system: DU-145 prostate
HCC-2998 colon = test system: HCC-2998 colon
HCT-116 colon = test system: HCT-116 colon
HCT-15 colon = test system: HCT-15 colon
HL-60(TB) leukemia = test system: HL-60(TB) leukemia
HOP-62 NSCLC = test system: HOP-62 NSCLC
HS 578T breast = test system: HS 578T breast
HT29 colon = test system: HT29 colon
IGROV1 ovarian = test system: IGROV1 ovarian
K-562 leukemia = test system: K-562 leukemia
KM12 colon = test system: KM12 colon
LOX IMVI melanoma = test system: LOX IMVI melanoma
M14 melanoma = test system: M14 melanoma
MALME-3M melanoma = test system: MALME-3M melanoma
MCF7 breast = test system: MCF7 breast
MDA-MB-231 breast = test system: MDA-MB-231 breast
MDA-MB-435 = test system: MDA-MB-435
MOLT-4 leukemia = test system: MOLT-4 leukemia
NCI-H226 lung = test system: NCI-H226 lung
NCI-H23 lung = test system: NCI-H23 lung
NCI-H460 lung = test system: NCI-H460 lung
NCI-H522 lung = test system: NCI-H522 lung
NCI/ADR-RES ovarian = test system: NCI/ADR-RES ovarian
OVCAR-3 ovarian = test system: OVCAR-3 ovarian
OVCAR-5 ovarian = test system: OVCAR-5 ovarian
OVCAR-8 ovarian = test system: OVCAR-8 ovarian
PC-3 prostate = test system: PC-3 prostate
RPMI-8226 leukemia = test system: RPMI-8226 leukemia
RXF 393 renal = test system: RXF 393 renal
SF-268 CNS = test system: SF-268 CNS
SF-295 CNS = test system: SF-295 CNS
SF-539 CNS = test system: SF-539 CNS
SK-MEL-2 melanoma = test system: SK-MEL-2 melanoma
SK-MEL-28 melanoma = test system: SK-MEL-28 melanoma
SK-OV-3 ovarian = test system: SK-OV-3 ovarian
SN12C renal = test system: SN12C renal
SNB-19 CNS = test system: SNB-19 CNS
SNB-75 CNS = test system: SNB-75 CNS
SR leukemia = test system: SR leukemia
SW-620 colon = test system: SW-620 colon
T-47D breast = test system: T-47D breast
TK-10 renal = test system: TK-10 renal
U251 CNS = test system: U251 CNS
UACC-257 melanoma = test system: UACC-257 melanoma
UACC-62 melanoma = test system: UACC-62 melanoma
UO-31 renal = test system: UO-31 renal
A549 NSCLC = test system: A549 NSCLC
CAKI-1 renal = test system: CAKI-1 renal
EKVX NSCLC = test system: EKVX NSCLC
HOP-92 NSCLC = test system: HOP-92 NSCLC
OVCAR-4 ovarian = test system: OVCAR-4 ovarian
SK-MEL-5 melanoma = test system: SK-MEL-5 melanoma

## COc1cc(Br)c(OC)c2c(OC)cc(C)cc12
786-0 renal
  TGI: > 100 µM
A498 renal
  TGI: > 100 µM
ACHN renal
  TGI: > 100 µM
BT-549 breast
  TGI: > 100 µM
CCRF-CEM leukemia
  TGI: > 100 µM
COLO 205 colon
  TGI: > 100 µM
DU-145 prostate
  TGI: > 100 µM
HCC-2998 colon
  TGI: > 100 µM
HCT-116 colon
  TGI: > 100 µM
HCT-15 colon
  TGI: > 100 µM
HL-60(TB) leukemia
  TGI: > 100 µM
HOP-62 NSCLC
  TGI: > 100 µM
HS 578T breast
  TGI: > 100 µM
HT29 colon
  TGI: > 100 µM
IGROV1 ovarian
  TGI: > 100 µM
K-562 leukemia
  TGI: > 100 µM
KM12 colon
  TGI: > 100 µM
LOX IMVI melanoma
  TGI: > 100 µM
M14 melanoma
  TGI: > 100 µM
MALME-3M melanoma
  TGI: > 100 µM
MCF7 breast
  TGI: > 100 µM
MDA-MB-231 breast
  TGI: > 100 µM
MDA-MB-435
  TGI: > 100 µM
MOLT-4 leukemia
  TGI: > 100 µM
NCI-H226 lung
  TGI: > 100 µM
NCI-H23 lung
  TGI: > 100 µM
NCI-H460 lung
  TGI: > 100 µM
NCI-H522 lung
  TGI: > 100 µM
NCI/ADR-RES ovarian
  TGI: > 100 µM
OVCAR-3 ovarian
  TGI: > 100 µM
OVCAR-5 ovarian
  TGI: > 100 µM
OVCAR-8 ovarian
  TGI: > 100 µM
PC-3 prostate
  TGI: > 100 µM
RPMI-8226 leukemia
  TGI: > 100 µM
RXF 393 renal
  TGI: > 100 µM
SF-268 CNS
  TGI: > 100 µM
SF-295 CNS
  TGI: > 100 µM
SF-539 CNS
  TGI: > 100 µM
SK-MEL-2 melanoma
  TGI: > 100 µM
SK-MEL-28 melanoma
  TGI: > 100 µM
SK-OV-3 ovarian
  TGI: > 100 µM
SN12C renal
  TGI: > 100 µM
SNB-19 CNS
  TGI: > 100 µM
SNB-75 CNS
  TGI: > 100 µM
SR leukemia
  TGI: 37.8 µM
SW-620 colon
  TGI: > 100 µM
T-47D breast
  TGI: > 100 µM
TK-10 renal
  TGI: > 100 µM
U251 CNS
  TGI: > 100 µM
UACC-257 melanoma
  TGI: > 100 µM
UACC-62 melanoma
  TGI: > 100 µM
UO-31 renal
  TGI: > 100 µM

## CC(C)(O)c1ccc(N2CCN(c3nnc(Cc4ccccc4)c4ccccc34)CC2)nc1
786-0 renal
  GI50: 14.6 µM
  TGI: 45.7 µM
A498 renal
  GI50: 13.9 µM
  TGI: 42.5 µM
A549 NSCLC
  GI50: 6.98 µM
  TGI: 25.1 µM
ACHN renal
  GI50: 11.3 µM
  TGI: 47.7 µM
BT-549 breast
  GI50: 6.28 µM
  TGI: 24 µM
CAKI-1 renal
  GI50: 11.3 µM
  TGI: 30.9 µM
CCRF-CEM leukemia
  GI50: 8.26 µM
  TGI: > 93 µM
COLO 205 colon
  GI50: 5.41 µM
  TGI: 16 µM
DU-145 prostate
  GI50: 12.1 µM
  TGI: 34.8 µM
EKVX NSCLC
  GI50: 4 µM
  TGI: 19.8 µM
HCC-2998 colon
  GI50: 14 µM
  TGI: 27.8 µM
HCT-116 colon
  GI50: 8.25 µM
  TGI: 54.1 µM
HCT-15 colon
  GI50: 8.31 µM
  TGI: 28.7 µM
HL-60(TB) leukemia
  GI50: 7.44 µM
  TGI: 31.1 µM
HOP-62 NSCLC
  GI50: 13.7 µM
  TGI: 28.6 µM
HOP-92 NSCLC
  GI50: 7.74 µM
  TGI: 38.7 µM
HS 578T breast
  GI50: 15.3 µM
  TGI: 41.4 µM
HT29 colon
  GI50: 12 µM
  TGI: 37.7 µM
IGROV1 ovarian
  GI50: 12.1 µM
  TGI: 28.4 µM
K-562 leukemia
  GI50: 4.81 µM
  TGI: > 72.9 µM
KM12 colon
  GI50: 13.2 µM
  TGI: 29.5 µM
LOX IMVI melanoma
  GI50: 14 µM
  TGI: 35.5 µM
M14 melanoma
  GI50: 8.86 µM
  TGI: 23 µM
MALME-3M melanoma
  GI50: 5.28 µM
  TGI: 17.9 µM
MCF7 breast
  GI50: 7.05 µM
  TGI: 21.7 µM
MDA-MB-231 breast
  GI50: 5.95 µM
  TGI: 32.2 µM
MDA-MB-435
  GI50: 10 µM
  TGI: 22.8 µM
MOLT-4 leukemia
  GI50: 5.4 µM
  TGI: 25.7 µM
NCI-H226 lung
  GI50: 5.76 µM
  TGI: 22.4 µM
NCI-H23 lung
  GI50: 5.68 µM
  TGI: 28.4 µM
NCI-H460 lung
  GI50: 9.83 µM
  TGI: 34.3 µM
NCI-H522 lung
  GI50: 6.32 µM
  TGI: 20.7 µM
NCI/ADR-RES ovarian
  GI50: 4.09 µM
  TGI: 46.8 µM
OVCAR-3 ovarian
  GI50: 10.4 µM
  TGI: 47.5 µM
OVCAR-4 ovarian
  GI50: 3.99 µM
  TGI: 26.3 µM
OVCAR-5 ovarian
  GI50: 17.2 µM
  TGI: 38.9 µM
OVCAR-8 ovarian
  GI50: 8.01 µM
  TGI: 42.5 µM
PC-3 prostate
  GI50: 10.7 µM
  TGI: > 56.5 µM
RXF 393 renal
  GI50: 6.76 µM
  TGI: 23.6 µM
SF-268 CNS
  GI50: 13.8 µM
  TGI: 33.5 µM
SF-295 CNS
  GI50: 4.16 µM
  TGI: 16.7 µM
SF-539 CNS
  GI50: 12.7 µM
  TGI: 29.2 µM
SK-MEL-2 melanoma
  GI50: 9.57 µM
  TGI: 26.2 µM
SK-MEL-28 melanoma
  GI50: 12 µM
  TGI: 24.9 µM
SK-MEL-5 melanoma
  GI50: 2.84 µM
  TGI: 8.64 µM
SK-OV-3 ovarian
  GI50: 18.7 µM
  TGI: 61.9 µM
SN12C renal
  GI50: 7.32 µM
  TGI: 33 µM
SNB-19 CNS
  GI50: 15.8 µM
  TGI: 67.1 µM
SNB-75 CNS
  GI50: 9.74 µM
  TGI: 24.5 µM
SR leukemia
  GI50: 18.6 µM
  TGI: > 100 µM
SW-620 colon
  GI50: 17.1 µM
  TGI: 38.5 µM
T-47D breast
  GI50: 2.71 µM
  TGI: 14.6 µM
TK-10 renal
  GI50: 13.4 µM
  TGI: 38.1 µM
U251 CNS
  GI50: 13.2 µM
  TGI: 37.3 µM
UACC-257 melanoma
  GI50: 8.59 µM
  TGI: 21.7 µM
UACC-62 melanoma
  GI50: 8.44 µM
  TGI: 21.9 µM
UO-31 renal
  GI50: 3.49 µM
  TGI: 19.5 µM
